# Read-outs that look alike come from different tables or passages of the source.
# Key:
# [1] = test system: models of pneumonia in rats induced by mixed bacteria solution of Staphylococcus aureus, Streptococcus pneumoniae, and Escherichia coli; assay: Pathological test of lung tissue (HE) in rat pneumonia model; assay type: in vivo, SD rats; conditions: erythromycin 5 mg/mL solution (18 mg/kg) inhaled
# From the text: (§1) Bacterial pneumonia is the most common pneumonia, is also one of the most common infectious diseases, and is caused by bacterial infection. Main pathogenic bacteria of the bacterial pneumonia include Streptococcus pneumoniae, Staphylococcus aureus, Escherichia coli, and the like, which pose a great threat to the health of children and the elderly. In this experiment, a mixed bacteria solution of Staphylococcus aureus, Streptococcus pneumoniae, and Escherichia coli was instilled into the trachea to induce models of pneumonia in rats. Pharmacodynamic effects of a peptide on pneumonia were evaluated by observing effects of the peptide inhaled through the nose and mouth on the models of pneumonia caused by mixed bacteria infection.
# (§2) 80 SD rats, SPF grade, half male and half female, were selected and randomly divided into 8 groups according to sex and body weight, including 6 rats in each of a blank control group and a model evaluation group, 8 rats in a blank administration group, and 12 rats in each of a model control group, an erythromycin group, a budesonide group, a low-dose polypeptide treatment group, and a high-dose polypeptide treatment group.
# Animals in the blank administration group were not modeled, and inhaled a high-concentration polypeptide aerosol (0.48 mg/L) through nose and mouth every day. […]
# [2] = test system: models of pneumonia in rats induced by mixed bacteria solution of Staphylococcus aureus, Streptococcus pneumoniae, and Escherichia coli; assay: Lung function test in rat pneumonia model induced by mixed bacteria; assay type: in vivo, SD rats
# From the text: as §1, §2
# (§3) Animals in the blank administration group were not modeled, and inhaled a high-concentration polypeptide aerosol (0.48 mg/L) through nose and mouth every day. Animals in the blank control group were instilled with a 0.5 mL 0.9% sodium chloride injection through trachea. After the remaining groups were slightly anesthetized with ether, the model control group, the erythromycin group, the budesonide group, the low-dose polypeptide treatment group, and the high-dose polypeptide treatment group were instilled with a 1×10^8 CFU/mL mixed bacteria solution of Staphylococcus aureus, Streptococcus pneumoniae, and Escherichia coli through trachea, 0.5 mL/rat, respectively, and the blank control group was instilled with a 0.9% sodium chloride injection of a same volume.
# (§4) A specific modeling method was as follows: a rat was anesthetized by ether inhalation and lied on an anatomical plate at an angle of 30-45°, trachea of the rat was exposed under an otoscope, a long puncture needle was connected to a 1 mL syringe and inserted into the trachea, each rat was injected with 0.5 mL of mixed bacteria, the puncture needle was pulled out after the injection, the rat was still kept at the original tilt position for about 10 min, and the bacteria solution flowed into bronchus and alveoli due to gravity to cause infection, so as to induce a rat pneumonia model.
# (§5) Each group was administrated for the first time at 2 h after modeling. After the experiment begun, 7.16 mg/mL and 71.6 mg/mL peptide solutions were atomized into aerosol particles with target concentrations of 0.07 and 0.48 mg/L every day, and the animals in the low-dose peptide treatment group and the high-dose peptide treatment group (0.54 mg/kg and 3.7 mg/kg, corresponding to drug concentrations 0.07 and 0.48 mg/L respectively) inhaled the aerosol particles with corresponding concentrations through mouth and nose respectively for 7 consecutive days, 10 min/time, 3 times a day; the blank administration group (cumulative dose 22.2 mg/kg, corresponding to a drug concentration 0.48 mg/L) inhaled 0.48 mg/L peptide aerosol particles through mouth and nose every day for 7 consecutive days, 20 min/time, 3 times a day; the blank control group and the model control group inhaled a 0.9% sodium chloride solution for the same time according to the same method; the erythromycin group and the budesonide group were administrated with a 5 mg/mL erythromycin solution and a 0.05 mg/mL budesonide suspension respectively for the same time according to the same method; and body weight of each group was tested every day.
# [3] = test system: models of pneumonia in rats induced by mixed bacteria solution of Staphylococcus aureus, Streptococcus pneumoniae, and Escherichia coli; assay: Arterial blood gas in rat pneumonia model induced by mixed bacteria; assay type: in vivo, SD rats; conditions: for PaCO2: partial pressure of carbon dioxide / PaO2: partial pressure of oxygen / arterial blood pH: pneumonia model rats
# From the text: as §1, §2, §3, §4
# as §5, with “day. […]” for “day.”
# Staphylococcus aureus = assay: animal or person; assay type: in vivo; conditions: for Number of staphylococcus aureus: lung tissue of pneumonia model rats; for inhibition at 5000 µg/mL, 18 mg/kg / inhibition at 50 µg/mL: Staphylococcus aureus, in Rattus norvegicus, inhaled or nasal, vs model control group
# Protocol: as §3, §4, §5
# (§6) Except the blank administration group, half animals of the remaining groups were randomly selected for lung function test, gross anatomy examination, and pathological test on D4 day, and lungs of 3 animals in each group were selected for bacteria culture and counting; and on D8 day, the remaining animals were subjected to lung function test, gross anatomy examination, and pathological test, and lungs of 3 animals in each group were selected for bacteria culture and counting (the blank control group and the blank administration group were not examined).
# (§7) Experimental steps of bacteria culture: except the blank administration group, six animals were randomly selected from each of the remaining groups (three animals were randomly selected from the first and last anatomies), left middle lobe lung tissues were taken, washed with 0.9% sodium chloride injection, added with double weight of 0.9% sodium chloride injection, and ground into homogenate, the homogenate was inoculated into a meat extract agar medium and cultured at 37° C. for 16 to 18 h, bacteria were isolated, and each isolated bacteria suspension was diluted to 10^−1, 10^−2, 10^−3, 10^−4, 10^−5, 10^−6, 10^−7 and 10^−8 according to 10 times gradient, namely, 9 mL normal saline plus 1 mL bacteria suspension was 10^−1, and so on. […]
# Streptococcus pneumoniae = assay: animal or person; assay type: in vivo; conditions: for Number of streptococcus pneumoniae: lung tissue of pneumonia model rats; for inhibition at 5000 µg/mL, 18 mg/kg / inhibition at 50 µg/mL: Streptococcus pneumoniae, in Rattus norvegicus, inhaled or nasal, vs model control group
# Protocol: as §3, §4, §5, §6, §7
# Escherichia coli = assay: animal or person; assay type: in vivo; conditions: for Number of escherichia coli: lung tissue of pneumonia model rats; for inhibition at 5000 µg/mL, 18 mg/kg / inhibition at 50 µg/mL: Escherichia coli, in Rattus norvegicus, inhaled or nasal, vs model control group
# Protocol: as §3, §4, §5, §6, §7
# [4] = D4, erythromycin 5 mg/mL solution (18 mg/kg) inhaled
# [5] = D8, erythromycin 5 mg/mL solution (18 mg/kg) inhaled
# [6] = D4, budesonide 0.05 mg/mL suspension (0.18 mg/kg) inhaled
# [7] = D8, budesonide 0.05 mg/mL suspension (0.18 mg/kg) inhaled
smiles,measurement,setting,value
"CC[C@H]1OC(=O)[C@H](C)[C@@H](O[C@H]2C[C@@](C)(OC)[C@@H](O)[C@H](C)O2)[C@H](C)[C@@H](O[C@@H]2O[C@H](C)C[C@H](N(C)C)[C@H]2O)[C@](C)(O)C[C@@H](C)C(=O)[C@H](C)[C@@H](O)[C@]1(C)O [Erythromycin, erythromycin]",pathological changes of lungs compared with the model control group,[1]; D4,significantly alleviated
same,lung tissue lesions,[1]; D8,tended to normal
same,FEV200 (forced expiratory volume),[2]; [4],2.84 ± 0.54 mL
same,FEV200/FVC,[2]; [4],90.65 ± 4.78 %
same,FVC: forced vital capacity,[2]; [4],3.12 ± 0.52 mL
same,VT: tidal volume,[2]; [4],1.59 ± 0.39 mL
same,f: respiratory rate,[2]; [4],132 ± 27 time/min
same,FEV200 (forced expiratory volume),[2]; [5],3.40 ± 0.12 mL
same,FEV200/FVC,[2]; [5],92.36 ± 2.94 %
same,FVC: forced vital capacity,[2]; [5],3.68 ± 0.20 mL
same,VT: tidal volume,[2]; [5],1.67 ± 0.24 mL
same,f: respiratory rate,[2]; [5],130 ± 25 time/min
same,PaCO2: partial pressure of carbon dioxide,[3]; [4],50.38 ± 6.60 mmHg
same,PaO2: partial pressure of oxygen,[3]; [4],69.68 ± 15.16 mmHg
same,arterial blood pH,[3]; [4],7.33 ± 0.05
same,PaO2 increase vs model control group,"[3]; D8, erythromycin group (18 mg/kg), no statistical difference",37.17%
same,PaCO2: partial pressure of carbon dioxide,[3]; [5],39.37 ± 5.60 mmHg
same,PaO2: partial pressure of oxygen,[3]; [5],71.08 ± 14.74 mmHg
same,arterial blood pH,[3]; [5],7.42 ± 0.04
same,Number of staphylococcus aureus,Staphylococcus aureus; [4],633 ± 146 CFU/mL
same,Number of staphylococcus aureus,Staphylococcus aureus; [5],113 ± 31 CFU/mL
same,"inhibition at 5000 µg/mL, 18 mg/kg","Staphylococcus aureus; read-out: Inhibition rate of staphylococcus aureus, D4, erythromycin 5 mg/mL solution (18 mg/kg) inhaled",87.4%
same,"inhibition at 5000 µg/mL, 18 mg/kg","Staphylococcus aureus; read-out: Inhibition rate of staphylococcus aureus, D8, erythromycin 5 mg/mL solution (18 mg/kg) inhaled",96.7%
same,Number of streptococcus pneumoniae,Streptococcus pneumoniae; [4],1223 ± 287 CFU/mL
same,Number of streptococcus pneumoniae,Streptococcus pneumoniae; [5],67 ± 15 CFU/mL
same,"inhibition at 5000 µg/mL, 18 mg/kg","Streptococcus pneumoniae; read-out: Inhibition rate of streptococcus pneumoniae, D4, erythromycin 5 mg/mL solution (18 mg/kg) inhaled",74.1%
same,"inhibition at 5000 µg/mL, 18 mg/kg","Streptococcus pneumoniae; read-out: Inhibition rate of streptococcus pneumoniae, D8, erythromycin 5 mg/mL solution (18 mg/kg) inhaled",95.8%
same,Number of escherichia coli,Escherichia coli; [4],447 ± 146 CFU/mL
same,Number of escherichia coli,Escherichia coli; [5],80 ± 2 CFU/mL
same,"inhibition at 5000 µg/mL, 18 mg/kg","Escherichia coli; read-out: Inhibition rate of escherichia coli, D4, erythromycin 5 mg/mL solution (18 mg/kg) inhaled",85.6%
same,"inhibition at 5000 µg/mL, 18 mg/kg","Escherichia coli; read-out: Inhibition rate of escherichia coli, D8, erythromycin 5 mg/mL solution (18 mg/kg) inhaled",91.7%
"CCCC1O[C@@H]2C[C@H]3[C@@H]4CCC5=CC(=O)C=C[C@]5(C)[C@H]4[C@@H](O)C[C@]3(C)[C@]2(C(=O)CO)O1 (some centres unmarked) [Budesonide, budesonide]",FEV200 (forced expiratory volume),[2]; [6],2.72 ± 0.72 mL
same,FEV200/FVC,[2]; [6],85.78 ± 8.00%
same,FVC: forced vital capacity,[2]; [6],3.13 ± 0.59 mL
same,VT: tidal volume,[2]; [6],1.86 ± 0.69 mL
same,f: respiratory rate,[2]; [6],130 ± 39 time/min
same,FEV200 (forced expiratory volume),[2]; [7],3.43 ± 0.69 mL
same,FEV200/FVC,[2]; [7],89.77 ± 4.58%
same,FVC: forced vital capacity,[2]; [7],3.80 ± 0.65 mL
same,VT: tidal volume,[2]; [7],1.63 ± 0.27 mL
same,f: respiratory rate,[2]; [7],126 ± 11 time/min
same,PaCO2: partial pressure of carbon dioxide,[3]; [6],52.87 ± 13.34 mmHg
same,PaO2: partial pressure of oxygen,[3]; [6],75.73 ± 30.92 mmHg
same,arterial blood pH,[3]; [6],7.31 ± 0.07
same,PaCO2: partial pressure of carbon dioxide,[3]; [7],34.35 ± 8.17 mmHg
same,PaO2: partial pressure of oxygen,[3]; [7],86.67 ± 24.78 mmHg
same,arterial blood pH,[3]; [7],7.45 ± 0.06
same,Number of staphylococcus aureus,Staphylococcus aureus; [6],2577 ± 655 CFU/mL
same,Number of staphylococcus aureus,Staphylococcus aureus; [7],560 ± 269 CFU/mL
same,inhibition at 50 µg/mL,"Staphylococcus aureus; read-out: Inhibition rate of staphylococcus aureus, D4, budesonide 0.05 mg/mL suspension (0.18 mg/kg) inhaled",48.7%
same,inhibition at 50 µg/mL,"Staphylococcus aureus; read-out: Inhibition rate of staphylococcus aureus, D8, budesonide 0.05 mg/mL suspension (0.18 mg/kg) inhaled",83.4%
same,Number of streptococcus pneumoniae,Streptococcus pneumoniae; [6],1810 ± 957 CFU/mL
same,Number of streptococcus pneumoniae,Streptococcus pneumoniae; [7],433 ± 276 CFU/mL
same,inhibition at 50 µg/mL,"Streptococcus pneumoniae; read-out: Inhibition rate of streptococcus pneumoniae, D4, budesonide 0.05 mg/mL suspension (0.18 mg/kg) inhaled",61.7%
same,inhibition at 50 µg/mL,"Streptococcus pneumoniae; read-out: Inhibition rate of streptococcus pneumoniae, D8, budesonide 0.05 mg/mL suspension (0.18 mg/kg) inhaled",72.7%
same,Number of escherichia coli,Escherichia coli; [6],3737 ± 1115 CFU/mL
same,Number of escherichia coli,Escherichia coli; [7],890 ± 409 CFU/mL
same,inhibition at 50 µg/mL,"Escherichia coli; read-out: Inhibition rate of escherichia coli, D4, budesonide 0.05 mg/mL suspension (0.18 mg/kg) inhaled",-20.6%
same,inhibition at 50 µg/mL,"Escherichia coli; read-out: Inhibition rate of escherichia coli, D8, budesonide 0.05 mg/mL suspension (0.18 mg/kg) inhaled",7.58%

# — patent publication US20230330178A1, “USE OF POLYPEPTIDE IN DRUG FOR PREVENTING AND TREATING PNEUMONIA” (priority 2020, published 2023)
